Patent publication US12728186B2, “Methods and kits for preparing pathogen-inactivated whole blood” (priority 2018, dated 2026)
Where “and” joins values, the source holds several entries; their conditions need not be identical. Equal values may be shown once.

What was measured:
Format in all cases: physicochemical
[1] = Residual amustaline by LCMS, Example 6 further example (direct donor collection into 2-container kit); conditions: donor blood collected into 2-container kit with CPDA-1; 22° C. 20 hours, second container 2-4 hours
Procedure: In another example, a 2-container kit comprising a treatment container and a filter set (e.g., described above) for introducing the amustaline/GSH (e.g., FIG. 8c) is used to collect from a donor 450 mL of whole blood into the first container that contains 63 mL of anticoagulant CPDA-1 (e.g., blood:anticoagulant ratio approximately 7:1), through the first inlet port. The collection line is then closed using a medical tubing clamp and the whole blood and anticoagulant solution are mixed. The pathogen inactivation compound amustaline and the quencher GSH are next added to the whole blood in the first container through the second port, to final concentrations of about 0.2 mM and 2.0 mM, respectively. The mixture of whole blood, PIC and quencher are incubated at 22° C. for 20 hours, followed by transfer of the mixture to the second container, clamping the tubing between the first and second containers, and incubating the mixture at 22° C. for a further 2-4 hours to provide a pathogen-inactivated whole blood unit.

[2] = Residual amustaline, Example 8 (2-container processing before component preparation); conditions: Units 2-7
Procedure: Additionally, a study was performed to evaluate plasma and red blood cells prepared from a pathogen-inactivated whole blood composition, either shortly after the whole blood PI treatment process, or after storing the pathogen-inactivated whole blood at 4° C. prior to preparing the plasma and red blood cell components. Donor whole blood units were pooled and split into seven units (e.g., to standardize across units), and subjected to treatment conditions as follows. Unit 1 was the control and treated only with saline, while units 2-7 were treated with amustaline and GSH, at concentrations of about 0.2 mM and 2.0 mM, respectively. Following addition of the amustaline and GSH, or the saline, in the first container (bag), the units were incubated at 22° C. for 22 hours, and then transferred to the second container (bag). Sampling was done at the time of transfer, and also at 24 hours and 26 hours (2 or 4 hours post-transfer, also incubated at 22° C.), for analysis of residual amustaline, hemolysis and/or fibrinogen and Factor VIII levels. […] Additionally, at Days 2, 5 and 7, samples were removed from the stored pathogen-inactivated whole blood, centrifuged to obtain plasma and red blood cells, and similarly analyzed. […]

[3] = Residual unreacted amustaline by LCMS, Example 4 (1-, 2- or 3-container kits); conditions: for Residual amustaline levels in pathogen-inactivated whole blood, 20 hr / Residual amustaline levels in pathogen-inactivated whole blood, 22 hr / Residual amustaline levels in pathogen-inactivated whole blood, 24 hr / Residual amustaline levels in pathogen-inactivated whole blood, 26 hr: 22° C.
Procedure: Another study was performed to evaluate the preparation of pathogen-inactivated whole blood using amustaline and GSH, in 1-container, 2-container or 3-container kits of the present disclosure. Six ABO-matched whole blood units in anticoagulant were pooled and split into seven units of ~450 mL. The seven whole blood units were subjected to pathogen inactivation under one of three conditions—with no transfer step between containers, one transfer step between two containers, or two transfer steps between three containers (Table 5). Amustaline and GSH were added to the whole blood units by sterile docking of a filter set as previously described to the tubing of an input port of the first container that contained the whole blood. Unit 1 was treated with amustaline and GSH at 0.2 mM and 2.0 mM final concentrations, respectively, in the first container and incubated at 22° C., with samples taken at 20, 22, 24 and 26 hours, with no further container transfers. For units 2-4, amustaline and GSH were added to the whole blood (0.2 mM and 2.0 mM final concentrations, respectively) in the first container and incubated at 22° C. for 20 hours. A sample was taken at 20 hours, along with transfer to a second bag and further incubation at 22° C., with additional sampling at 2 hour intervals (22, 24 and 26 hr). For units 5-7, amustaline and GSH were added to the whole blood (0.2 mM and 2.0 mM final concentrations, respectively) in the first container and the mixture transferred to a second container, followed by incubation at 22° C. for 20 hours. A sample was taken at 20 hours, along with transfer to a third bag and further incubation at 22° C., with additional sampling at 2 hour intervals (22, 24 and 26 hr).
Samples were analyzed by LCMS to determine the level of residual, unreacted amustaline as previously described.

[4] = Unit 1, no transfer (1 bag kit)
[5] = Units 2-4, 1x transfer (2 bag kit), to second bag at 20 hr
[6] = Units 5-7, 2x transfer (3 bag kit), second container after addition, third bag at 20 hr

What does the source list for O=C(CCNc1c2ccccc2nc2ccccc12)OCCN(CCCl)CCCl [amustaline]?
Residual amustaline levels in the pathogen-inactivated whole blood preparation [1]: below 1 nm; Residual amustaline levels in pathogen-inactivated whole blood, 22 hr ([2]; 22 hr (time of transfer), first container 22° C. for 22 hours, then second container): 1.46 nM and 1.39 nM and 1.35 nM and 1.96 nM and 1.84 nM and 1.55 nM; Residual amustaline levels in pathogen-inactivated whole blood, 26 hr ([2]; 26 hr (4 hours post-transfer, 22° C.), second container from 22 hr): BLOQ (BLOQ = Below Limit of Quantitation (e.g., < 0.75 nM)); level of amustaline after PI processing, 2-container and 3-container kits ([3]; 2-container and 3-container kits, after transfer at 20 hr): below the limit of quantitation; Residual amustaline levels in pathogen-inactivated whole blood, 20 hr ([3]; 20 hr (at transfer to third bag), Units 5-7, 2x transfer (3 bag kit), second container after addition, third bag at 20 hr): 1.47 nM and 1.46 nM and 1.53 nM; Residual amustaline levels in pathogen-inactivated whole blood, 20 hr ([3]; 20 hr (at transfer), Units 2-4, 1x transfer (2 bag kit), to second bag at 20 hr): 1.53 nM and 1.65 nM and 1.66 nM; Residual amustaline levels in pathogen-inactivated whole blood, 20 hr ([3]; 20 hr, Unit 1, no transfer (1 bag kit)): 1.47 nM; Residual amustaline levels in pathogen-inactivated whole blood, 22 hr [3, 4]: 1.54 nM; Residual amustaline levels in pathogen-inactivated whole blood, 22 hr [3, 5]: BLOQ (BLOQ = Below Limit of Quantitation (e.g., < 0.75 nM)); Residual amustaline levels in pathogen-inactivated whole blood, 22 hr [3, 6]: BLOQ (BLOQ = Below Limit of Quantitation (e.g., < 0.75 nM)); Residual amustaline levels in pathogen-inactivated whole blood, 24 hr [3, 4]: 1.39 nM; Residual amustaline levels in pathogen-inactivated whole blood, 24 hr [3, 5]: BLOQ (BLOQ = Below Limit of Quantitation (e.g., < 0.75 nM)); Residual amustaline levels in pathogen-inactivated whole blood, 24 hr [3, 6]: BLOQ (BLOQ = Below Limit of Quantitation (e.g., < 0.75 nM)); Residual amustaline levels in pathogen-inactivated whole blood, 26 hr [3, 4]: 1.32 nM; Residual amustaline levels in pathogen-inactivated whole blood, 26 hr [3, 5]: BLOQ (BLOQ = Below Limit of Quantitation (e.g., < 0.75 nM)); Residual amustaline levels in pathogen-inactivated whole blood, 26 hr [3, 6]: BLOQ (BLOQ = Below Limit of Quantitation (e.g., < 0.75 nM))
